System: T1, GmHXK15
T1 construct: CDS in pET32a(+) (NcoI/XhoI), His-tagged fusion, E. coli Rosetta / DE3, Ni-NTA
Test: initial velocity, Michaelis-Menten / Eadie-Hofstee
Type: biochemical, Glycine max
Details: assay pH, temperature and ATP not stated

Km (varied glucose) | Km (varied fructose) | Compound
60 µM |  | OC[C@H]1OC(O)[C@H](O)[C@@H](O)[C@@H]1O (some centres unmarked) [glucose]
 | 1300 µM | OCC1(O)OC[C@@H](O)[C@@H](O)[C@@H]1O (some centres unmarked) [fructose]

— publication PMC10490225, “Genome-Wide Characterization of Soybean Hexokinase Genes Reveals a Positive Role of GmHXK15 in Alkali Stress Response” (Plants, 2023)
